Experimental data: ChEMBL document CHEMBL3046963, “Fungicidal Activity of 2-Aminochromone-3-carboxamides” (1990)
≈ marks a conversion by molar mass, not a printed value.

Tests used:
Format in all cases: functional
Nakataea oryzae = assay: Fungicidal activity against Magnaporthe salvinii by agar dilution method
Bipolaris oryzae = assay: Fungicidal activity against Bipolaris oryzae by agar dilution method
Pyricularia oryzae [1] = assay: Fungicidal activity against Magnaporthe oryzae by agar dilution method
Rhizoctonia solani [2] = assay: Fungicidal activity against Rhizoctonia solani by agar dilution method
Rhizoctonia solani [3] = assay: In vivo fungicidal activity against Rhizoctonia solani in rice seedlings assessed as control of sheath blight disease at 500 ppm by curative foliar treatment
Fusarium fujikuroi [4] = assay: Fungicidal activity against Fusarium fujikuroi assessed as infected rice seedlings in seed disinfection against bakanae disease at 1000 ppm by soaking method
Fusarium fujikuroi [5] = assay: Fungicidal activity against Fusarium fujikuroi by agar dilution method
Pyricularia oryzae [6] = assay: Fungicidal activity against Magnaporthe oryzae in rice seedlings assessed as control of rice blast at 500 ppm by preventive foliar treatment
Pyricularia oryzae [7] = assay: Fungicidal activity against Magnaporthe oryzae in rice seedlings assessed as control of rice blast at 500 ppm by curative foliar treatment
Rhizoctonia solani [8] = assay: In vivo fungicidal activity against Rhizoctonia solani in rice seedlings assessed as control of sheath blight disease at 250 ppm by curative foliar treatment

SMILES | MIC (Nakataea oryzae) | MIC (Bipolaris oryzae) | MIC (Pyricularia oryzae [1]) | MIC (Rhizoctonia solani [2]) | Activity (Rhizoctonia solani [3]) | Activity (Fusarium fujikuroi [4]) | MIC (Fusarium fujikuroi [5]) | Activity (Pyricularia oryzae [6]) | Activity (Pyricularia oryzae [7]) | Activity (Rhizoctonia solani [8])
NC(=O)c1c(N)oc2ccc(I)cc2c1=O | 3.12 µg/mL (≈ 9.45 µM) | 12.5 µg/mL (≈ 37.9 µM) | 3.12 µg/mL (≈ 9.45 µM) | 12.5 µg/mL (≈ 37.9 µM) | 100% |  |  |  |  | 
O=c1[nH]cnc2oc3ccccc3c(=O)c12 | > 100 µg/mL | > 100 µg/mL | > 100 µg/mL | > 100 µg/mL | 0% |  |  |  |  | 
CCOC(=O)Nc1oc2ccc(C(C)(C)C)cc2c(=O)c1C(N)=O | 25 µg/mL (≈ 75.2 µM) | > 100 µg/mL | 25 µg/mL (≈ 75.2 µM) | 50 µg/mL (≈ 150 µM) | 100% |  |  |  |  | 
CCCCc1ccc2oc(N)c(C(N)=O)c(=O)c2c1 | 50 µg/mL (≈ 192 µM) | > 100 µg/mL | 50 µg/mL (≈ 192 µM) | > 100 µg/mL | 90% |  |  |  |  | 
CC(C)(C)c1ccc2oc(N)c(C(N)=O)c(=O)c2c1 | 0.78 µg/mL (≈ 3 µM) | 6.25 µg/mL (≈ 24 µM) | 0.78 µg/mL (≈ 3 µM) | 0.78 µg/mL (≈ 3 µM) | 100% | 3% | 12.5 µg/mL (≈ 48 µM) | 81% | 96% | 
Cc1ccc2oc(N)c(C(N)=O)c(=O)c2c1 | 6.25 µg/mL (≈ 28.6 µM) | 25 µg/mL (≈ 115 µM) | 6.25 µg/mL (≈ 28.6 µM) | 6.25 µg/mL (≈ 28.6 µM) |  |  |  |  |  | 100%
CNC(=O)Nc1oc2ccc(C(C)(C)C)cc2c(=O)c1C(N)=O | 0.78 µg/mL (≈ 2.46 µM) | 100 µg/mL (≈ 315 µM) | 0.78 µg/mL (≈ 2.46 µM) | > 100 µg/mL | 100% |  |  |  |  | 
CCC(C)(CC)c1ccc2oc(N)c(C(N)=O)c(=O)c2c1 | 3.12 µg/mL (≈ 10.8 µM) | > 100 µg/mL | 1.56 µg/mL (≈ 5.41 µM) | > 100 µg/mL | 100% |  |  |  |  | 
CC(=O)Nc1oc2ccccc2c(=O)c1C(N)=O | 100 µg/mL (≈ 406 µM) | > 100 µg/mL | 50 µg/mL (≈ 203 µM) | 25 µg/mL (≈ 102 µM) | 90% |  |  |  |  | 
CCC(C)(C)c1ccc2oc(N)c(C(N)=O)c(=O)c2c1 | 6.25 µg/mL (≈ 22.8 µM) | 50 µg/mL (≈ 182 µM) | 3.12 µg/mL (≈ 11.4 µM) | > 100 µg/mL | 100% |  |  |  |  | 
CNc1oc2ccc(C(C)(C)C)cc2c(=O)c1C(N)=O | 1.56 µg/mL (≈ 5.69 µM) | 25 µg/mL (≈ 91.1 µM) | 1.56 µg/mL (≈ 5.69 µM) | 25 µg/mL (≈ 91.1 µM) | 100% |  |  |  |  | 
CC(=O)Nc1oc2ccc(C(C)(C)C)cc2c(=O)c1C(N)=O | 6.25 µg/mL (≈ 20.7 µM) | 100 µg/mL (≈ 331 µM) | 3.12 µg/mL (≈ 10.3 µM) | 6.25 µg/mL (≈ 20.7 µM) | 100% |  |  |  |  | 
CCC(C)c1ccc2oc(N)c(C(N)=O)c(=O)c2c1 (centres undefined) | 0.78 µg/mL (≈ 3 µM) | 25 µg/mL (≈ 96 µM) | 0.78 µg/mL (≈ 3 µM) | 6.25 µg/mL (≈ 24 µM) | 79% | 6.5% | > 100 µg/mL | 19% | 96% | 
CC(C)(C)c1ccc2oc3nc[nH]c(=O)c3c(=O)c2c1 | > 100 µg/mL | > 100 µg/mL | > 100 µg/mL | > 100 µg/mL | 0% |  |  |  |  | 
CC(C)C(C)(C)c1ccc2oc(N)c(C(N)=O)c(=O)c2c1 | 6.25 µg/mL (≈ 21.7 µM) | > 100 µg/mL | 3.12 µg/mL (≈ 10.8 µM) | > 100 µg/mL | 100% |  |  |  |  | 
CC(C)c1ccc2oc(N)c(C(N)=O)c(=O)c2c1 | 3.12 µg/mL (≈ 12.7 µM) | 100 µg/mL (≈ 406 µM) | 1.56 µg/mL (≈ 6.33 µM) | 100 µg/mL (≈ 406 µM) | 85% | 6% | > 100 µg/mL | 74% | 94% | 
NC(=O)c1c(N)oc2ccccc2c1=O | 12.5 µg/mL (≈ 61.2 µM) | > 100 µg/mL | 25 µg/mL (≈ 122 µM) | 12.5 µg/mL (≈ 61.2 µM) |  |  |  |  |  | 100%
NC(=O)c1c(N)oc2c(Br)cc(Br)cc2c1=O | > 100 µg/mL | > 100 µg/mL | > 100 µg/mL | > 100 µg/mL | 76% |  |  |  |  | 
NC(=O)c1c(N)oc2ccc(F)cc2c1=O | 25 µg/mL (≈ 113 µM) | > 100 µg/mL | 25 µg/mL (≈ 113 µM) | 12.5 µg/mL (≈ 56.3 µM) | 100% |  |  |  |  | 
CCCC(C)(C)c1ccc2oc(N)c(C(N)=O)c(=O)c2c1 | 6.25 µg/mL (≈ 21.7 µM) | > 100 µg/mL | 1.56 µg/mL (≈ 5.41 µM) | > 100 µg/mL | 100% |  |  |  |  | 
NC(=O)c1c(N)oc2ccc(Br)cc2c1=O | 1.56 µg/mL (≈ 5.51 µM) | > 100 µg/mL | 1.56 µg/mL (≈ 5.51 µM) | 3.12 µg/mL (≈ 11 µM) | 100% |  |  |  |  | 
NC(=O)c1c(N)oc2c(Cl)cc(Cl)cc2c1=O | > 100 µg/mL | > 100 µg/mL | > 100 µg/mL | 100 µg/mL (≈ 366 µM) | 100% |  |  |  |  | 
C/C(=N/Nc1nc(C)cc(C)n1)c1ccccc1C [FERIMZONE] | 1.56 µg/mL (≈ 6.13 µM) | 25 µg/mL (≈ 98.3 µM) | 3.12 µg/mL (≈ 12.3 µM) | 50 µg/mL (≈ 197 µM) | 100% |  | > 100 µg/mL | 99% | 100% | 
Cc1oc2ccccc2c(=O)c1C(N)=O | > 100 µg/mL | > 100 µg/mL | > 100 µg/mL | > 100 µg/mL | 0% |  |  |  |  | 
N#Cc1c(N)oc2ccccc2c1=O | > 100 µg/mL | > 100 µg/mL | > 100 µg/mL | > 100 µg/mL | 0% |  |  |  |  | 
CCc1ccc2oc(N)c(C(N)=O)c(=O)c2c1 |  | 25 µg/mL (≈ 108 µM) | 0.78 µg/mL (≈ 3.36 µM) | 3.25 µg/mL (≈ 14 µM) |  |  |  |  |  | 90%
NC(=O)c1c(N)oc2ccc(Cl)cc2c1=O | 12.5 µg/mL (≈ 52.4 µM) | > 100 µg/mL | 3.12 µg/mL (≈ 13.1 µM) | 6.25 µg/mL (≈ 26.2 µM) |  |  |  |  |  | 96%
